Where two headings read alike, the source gives them in different places.
Legend:
zebrafish [1] = details: cited from earlier work
zebrafish [2] = details: previous work; cited from earlier work
zebrafish α4β2 nAChR [3] = target: T1, zebrafish α4β2 nAChR (Danio rerio, UniProt E7F4S7+Q0PJT8); test: Agonist-evoked responses, two-electrode voltage clamp in Xenopus oocytes; assay type: cell-based; details: for Activation of α4β2 receptors by probe concentration: 30 µM 4OH-GTS-21 and tropane, 300 µM choline; for Emax: read-out: Imax
[4] = tested on: zebrafish heteromeric nAChR subtypes (α3β4, α1β1bεδ, α2β2, α4β2); assay type: cell-based, zebrafish (Danio rerio); details: co-application, 30 µM 4OH-GTS-21 and tropane, 300 µM choline
zebrafish α7 nAChR [5] = target: T2, zebrafish α7 nAChR (Danio rerio, UniProt Q800C7); test: Agonist-evoked responses, two-electrode voltage clamp in Xenopus oocytes; assay type: cell-based; details: for Activation of fish α7 nAChR: prototypical α7-selective agonists; for Emax: read-out: Imax; for Agonist type compared to ACh: α7
[6] = tested on: human and zebrafish α3β4 and α4β2 nAChR; assay type: cell-based; details: α3β4 and α4β2, repeated application protocol, low concentration of mecamylamine
[7] = target: T3, zebrafish muscle α1β1bεδ nAChR (Danio rerio, UniProt A2BG85+G1FMP8+Q75XT1+Q98880); details: for IC50: α1β1bεδ, co-application with 30 µM ACh
zebrafish α7 nAChR [8] = target: T2, zebrafish α7 nAChR; details: α7, data not shown
zebrafish [9] = details: given 5 minutes before the task (not if 40 minutes prior); cited from earlier work
zebrafish α3β4 nAChR [10] = target: T4, zebrafish α3β4 nAChR (Danio rerio, UniProt A0A0R4ISQ3+A0A8M1QHJ5); test: Inhibition of ACh-evoked responses by co-applied mecamylamine in Xenopus oocytes; assay type: cell-based
zebrafish α7 nAChR [11] = target: T2, zebrafish α7 nAChR; test: cell-based
zebrafish α2β2 nAChR [12] = target: T5, zebrafish α2β2 nAChR (Danio rerio, UniProt A0ACM8Q9T8+E7F4S7); test: cell-based
zebrafish α2β2 nAChR [13] = target: T5, zebrafish α2β2 nAChR; details: α2β2, ACh control after normal washout
zebrafish α4β2 nAChR [14] = target: T1, zebrafish α4β2 nAChR; details: α4β2, ACh control after normal washout
rat α3β4 nAChR = details: rat α3β4, co-application of 100 µM ACh with 3 µM mecamylamine; cited from earlier work
zebrafish [15] = details: cited from earlier work; remark: listed apart in the source
[16] = target: T3, zebrafish muscle α1β1bεδ nAChR; test: cell-based; details: read-out: Imax
[17] = target: T3, zebrafish muscle α1β1bεδ nAChR; details: for EC50: peak current amplitude
zebrafish α2β2 nAChR [18] = target: T5, zebrafish α2β2 nAChR; test: cell-based; remark: listed apart in the source
zebrafish α3β4 nAChR [19] = target: T4, zebrafish α3β4 nAChR; test: Agonist-evoked responses, two-electrode voltage clamp in Xenopus oocytes; assay type: cell-based; details: for Emax: read-out: Imax; for Agonist type compared to ACh: α3β4
[20] = target: T6, zebrafish α3β4F106Y nAChR (Danio rerio, UniProt A0A0R4ISQ3+A0A8M1QHJ5, F140Y)
[21] = target: T6, zebrafish α3β4F106Y nAChR; test: cell-based
human α7 nAChR = details: read-out: EC50 for human α7; used as probe concentration; cited from earlier work
zebrafish [22] = details: cited from earlier work; remark: listed apart in the source

CCN1C[C@]2(COC(=O)c3ccccc3N3C(=O)C[C@H](C)C3=O)CC[C@H](OC)[C@@]34[C@@H]5C[C@H]6[C@H](OC)[C@@H]5[C@](O)(C[C@@H]6OC)[C@@](O)([C@@H](OC)[C@H]23)[C@@H]14 [MLA, methyllycaconitine]
Effect on anxiolytic effects of nicotine (zebrafish [1]): blocked | Effect on nicotine-induced increase in swimming activity (zebrafish [2]): blocked

COc1cc(O)ccc1/C=C1\CCCN=C1c1cccnc1 [4OH-GTS-21, 3-(4-hydroxy, 2-methoxybenzylidene)anabaseine]
Activation of α4β2 receptors by probe concentration (zebrafish α4β2 nAChR [3]): evoked significant responses | Inhibition of ACh-evoked responses of heteromeric nAChR subtypes [4]: inhibited all of the heteromeric receptors | Activation of fish α7 nAChR (zebrafish α7 nAChR [5]): activate

CN1[C@@H]2CCC[C@H]1CC2 [tropane]
Activation of α4β2 receptors by probe concentration (zebrafish α4β2 nAChR [3]): evoked significant responses | Inhibition of ACh-evoked responses of heteromeric nAChR subtypes [4]: effective at inhibiting the neuronal heteromeric receptor subtypes | Activation of fish α7 nAChR (zebrafish α7 nAChR [5]): activate

CNC1(C)C2CCC(C2)C1(C)C (stereo not shown) [mecamylamine]
Inhibition of fish versus human receptor subtypes [6]: significantly greater (p < 0.01) | Effect on anxiolytic effect of nicotine (zebrafish [1]; 200 mg/l mecamylamine): blocked | Reversibility of inhibition ([7]; muscle-type receptors): readily reversible | IC50 ([7]; read-out: Net charge IC50): 0.6 ± 0.07 µM | IC50 ([7]; read-out: Peak current IC50): 1.8 ± 0.21 µM | Reversibility of inhibition (zebrafish α7 nAChR [8]): readily reversible | Effect on nicotine-induced improvement in spatial learning task (zebrafish [9]): blocked this nicotine-induced improvement | IC50 (zebrafish α3β4 nAChR [10]; Net charge IC50, α3β4, co-application with 100 µM ACh): 0.05 ± 0.01 µM | IC50 (zebrafish α3β4 nAChR [10]; Peak current IC50, α3β4, co-application with 100 µM ACh): 0.6 ± 0.1 µM | Reversibility of inhibition (zebrafish α3β4 nAChR [10]; α3β4, 3 µM mecamylamine): rapidly reversible | IC50 (zebrafish α7 nAChR [11]; Net charge IC50, α7, co-application with 60 µM ACh): 13 ± 3 µM | IC50 (zebrafish α7 nAChR [11]; Peak current IC50, α7, co-application with 60 µM ACh): 28 ± 11 µM | IC50 (zebrafish α2β2 nAChR [12]; Net charge IC50, α2β2, co-application with 30 µM ACh): 3.5 ± 1.3 µM | IC50 (zebrafish α2β2 nAChR [12]; Peak current IC50, α2β2, co-application with 30 µM ACh): 3 ± 0.7 µM | Mecamylamine concentration giving significant (>25%) residual inhibition (zebrafish α2β2 nAChR [13]): ≥ 300 nM | Mecamylamine concentration giving significant (>25%) residual inhibition (zebrafish α4β2 nAChR [14]): ≥ 30 nM | Residual inhibition of ACh control responses following washout (rat α3β4 nAChR): 60% | Effect on nicotine-induced increase of dihydroxyphenylacetic acid (zebrafish [15]): blocked

O=c1cccc2n1C[C@@H]1CNC[C@H]2C1 [cytisine]
Emax (zebrafish α4β2 nAChR [3]): 26 ± 1% | Emax [16]: 13 ± 0.3% | EC50 [17]: 460 ± 20 µM | EC50 (zebrafish α7 nAChR [5]): 15 ± 3 µM | Emax (zebrafish α7 nAChR [5]): 116 ± 6% | Agonist type compared to ACh (zebrafish α7 nAChR [5]): full agonist | EC50 (zebrafish α2β2 nAChR [18]): 4.1 ± 0.3 µM | Emax (zebrafish α2β2 nAChR [18]; read-out: Imax): 9 ± 1% | EC50 (zebrafish α3β4 nAChR [19]): 11 ± 1 µM | Emax (zebrafish α3β4 nAChR [19]): 12 ± 0.2% | Agonist type compared to ACh (zebrafish α3β4 nAChR [19]): relatively weak partial agonist | Relative amplitude of responses versus wild-type fish α3β4 ([20]; 100 µM cytisine, relative to 100 µM ACh control responses): significantly larger | Effect of the F106Y mutation on efficacy ([20]; expressed relative to respective ACh maximums): no significant effect

CC(=O)OCC[N+](C)(C)C [ACh, acetylcholine]
EC50 (zebrafish α7 nAChR [5]): 39 ± 3 µM | EC50 [21]: 134 ± 5 µM | EC50 (zebrafish α3β4 nAChR [19]): 73 ± 3 µM

C[N+](C)(C)CCO [choline]
Activation of α4β2 receptors by probe concentration (zebrafish α4β2 nAChR [3]): evoked significant responses | EC50 (human α7 nAChR): 300 µM | Inhibition of ACh-evoked responses of heteromeric nAChR subtypes [4]: relatively ineffective | Activation of fish α7 nAChR (zebrafish α7 nAChR [5]): activate

CO[C@H]1CC=C2CCN3CCC4=C(CC(=O)OC4)[C@]23C1 [DHβE, dihydro-beta-erythroidine]
Effect on anxiolytic effects of nicotine (zebrafish [1]): blocked | Effect on nicotine-induced increase in swimming activity (zebrafish [2]): blocked

CN1CCC[C@H]1c1cccnc1 [nicotine]
Effect in fish model of anxiety (zebrafish [1]; 100 mg/l): anxiolytic | Emax (zebrafish α4β2 nAChR [3]): 70 ± 10% | Agonist type compared to ACh (zebrafish α4β2 nAChR [3]; α4β2): partial agonist | Emax [16]: 13 ± 3% | Swimming activity (zebrafish [2]): increases swimming activity | Performance in delayed spatial alternation task (zebrafish [22]; high doses): impaired | Performance in delayed spatial alternation task (zebrafish [22]; low doses (100 mg/l in the water)): improved performance | Agonist type compared to ACh [17]: partial agonist | EC50 [17]: 140 ± 50 µM | Dihydroxyphenylacetic acid levels (zebrafish [15]): increases dihydroxyphenylacetic acid levels | EC50 (zebrafish α7 nAChR [5]): 27 ± 6 µM | Emax (zebrafish α7 nAChR [5]): 75 ± 4% | Agonist type compared to ACh (zebrafish α7 nAChR [5]): full agonist | EC50 (zebrafish α3β4 nAChR [19]): 13 ± 6 µM | Emax (zebrafish α3β4 nAChR [19]): 17 ± 2% | Agonist type compared to ACh (zebrafish α3β4 nAChR [19]): partial agonist

— publication PMC3372685 (Biochemical Pharmacology, 2012)
